Measured values reported in patent US20020038028A1, “7-Hetero-bicyclo[2.2.1]-heptanes” (priority 1998, published 2002).

Question: For `Cl.N=C(N)c1ccc(C2CC3CCC2N3)cc1` (centres unmarked), which melting point is on record?
Answer: The melting point was 198.5 to 201 °C.

Question: With `Cl.Oc1ccc(C2CC3CCC2N3)cc1` (centres unmarked) as the molecule, how does the melting point read?
Answer: The melting point was 242.5 to 244 °C.

Question: Which melting point does the source give for `CSc1ccc(C2CC3CCC2N3)cc1.Cl` (centres unmarked) here?
Answer: Its melting point is 216.5 to 218 °C.

Question: Which melting point does the source give for `COC(=O)c1ccc(C2CC3CCC2N3)cc1.Cl` (centres unmarked) here?
Answer: Its melting point is 235 to 236 °C.

Question: With `Cl.O=C(O)c1ccc(C2CC3CCC2N3)cc1` (centres unmarked) as the molecule, how does the melting point read?
Answer: Its melting point is 261.5 to 264.5 °C.
